Measured values as given in patent EP1944296A1, “Amorphous phase of a substituted pyrazoline, its preparation and use as medicaments” (Laboratorios del Dr. Esteve S.A., priority 2007, dated 2008).

Target: T1, recombinant human cannabinoid 1 receptor (CB1) (Homo sapiens, UniProt P21554)
T1 construct: expressed in transfected cells; membrane preparation
Experiment: In vitro determination of antagonism to CB1-receptor, [35S]GTPγS binding assay
Type: biochemical
Details: compound 1 µM vs agonist WIN 55,212-2; 100 % = effect of Rimonabant (1 µM)
Protocol: The reaction is performed in 96-well plates. […] Radioactivity is determined using a Wallac Microbeta Trilux. Each experiment is performed at least in duplicate.
The average of basal [^35S]GTPγS binding is subtracted from all binding data.

T1 sequence (P21554 whole entry): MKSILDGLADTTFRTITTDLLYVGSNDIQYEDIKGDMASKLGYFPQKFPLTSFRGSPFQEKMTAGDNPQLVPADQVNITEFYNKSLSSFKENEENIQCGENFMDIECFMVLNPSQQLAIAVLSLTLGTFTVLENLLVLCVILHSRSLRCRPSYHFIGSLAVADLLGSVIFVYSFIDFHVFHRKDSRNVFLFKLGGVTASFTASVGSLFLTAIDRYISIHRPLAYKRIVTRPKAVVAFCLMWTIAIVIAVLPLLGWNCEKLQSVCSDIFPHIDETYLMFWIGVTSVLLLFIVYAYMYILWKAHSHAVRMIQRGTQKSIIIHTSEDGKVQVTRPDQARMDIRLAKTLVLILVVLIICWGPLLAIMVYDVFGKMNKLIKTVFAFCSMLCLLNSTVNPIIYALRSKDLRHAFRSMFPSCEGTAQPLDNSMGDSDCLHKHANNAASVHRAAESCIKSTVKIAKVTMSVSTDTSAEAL

For O=C(NN1CCCCC1)C1=NN(c2ccc(Cl)cc2Cl)[C@@H](c2ccc(Cl)cc2)C1 [Example 1, (R)-N-piperidinyl-5-(4-chlorophenyl)-1-(2,4-dichlorophenyl)-4,5-dihydro-1H-pyrazole-3-carboxamide], the Antagonism was 106%.
